# Test results from US10837001B2, “Cardiomyocyte maturation platform” (The Regents of the University of California, priority 2016, dated 2020).
# Key:
# [1] = system: iPSC-derived CM; assay: qPCR of maturation markers with EC-conditioned medium / EC co-culture and ET or notch inhibition; type: cell-based, human; conditions: 20 μM, EC and CM co-cultured, 7 days
# Method: EC and iPSC-derived CMs were plated onto Matrigel Growth Factor Reduced (BD) coated dishes. Cells were fed with RPMI media supplemented with B27 (Life Technologies) and Endothelial Cell Growth Supplement (ECGS; BD Biosciences) every 2-3 days. EC-conditioned medium was collected after 1-3 days of EC growth. Endothelin inhibition was achieved by adding 10 nM PD145065 inhibitor (EMD Millipore) and notch inhibition with 20 μM DAPT (Sigma) at every media change. Cells were fed on days 1 and 4 and then harvested after 7 days.
# RNA was extracted using TRIzol (Life Technologies) according to manufacturer's instructions. Three micrograms of RNA was used to generate cDNA using the iSCRIPT cDNA Synthesis Kit (Bio-Rad). The reaction mix included SYBR green chemistry and primers generated by IDT Technologies. The samples were analyzed using an iQ5 Real Time PCR Detection System (Bio-Rad). The control sample, compared to EC/iPSC-derived CM co-culture, consisted of a mix of equal parts EC and iPSC-derived CM RNA that were isolated separately. (n=3; *p<0.05 **p<0.01 ***p<0.001, Student's t-test)
# [2] = system: iPSC-derived CM; conditions: endothelial cells/cardiomyocyte co-culture; cited from earlier work
# [3] = system: iPSC-derived cardiomyocytes; assay: Pharmacological treatment of iPSC-derived cardiomyocytes (beat rate, calcium transient); type: cell-based, human
# Method: The iPSC-derived cardiomyocytes have been engineered to express a calcium indicator (GCaMP6f reporter) that emits fluorescence in the presence of cytosolic calcium. Calcium transients were measured using an epifluorescent microscope with an inverted 10× objective (IX70 Olympus, Tokyo, Japan). Images were captured using a SPOT Idea 3.0 megapixel color fluorescent camera and SPOT acquisition software (SPOT Imaging Solutions, Sterling Heights, Mich.). The cells were placed in a 37° C. heated stage during imaging. The video was captured at 33 frames/second with 8×8 binning. ImageJ was used to process and extract the temporal fluorescence intensity of the acquired video data. Subsequent data were analyzed using MATLAB software (MathWorks, Torrance, Calif.). A customized algorithm determined the troughs and peaks of each calcium wave and measured the amplitude, max upslope, max downslope, time to 50% decay, and beat rate. Additional measurements included the effect of caffeine on the slope of amplitude change. Baseline and drug recordings were taken before and after 10 min incubation with the drug(s) on the 37° C. stage. All recordings were taken over 1 min. The order of the β-adrenergic drug treatments was baseline, 1 μM isoproterenol (Sigma #16504), and 1 μM Isoproterenol+10 μM Propranolol (Sigma # P0884). The effect of caffeine (Tocris #2793) on calcium signaling was assessed at a final concentration of 20 mM. The video recordings were acquired before and during the addition of caffeine.
smiles,measurement,setting,value
C[C@H](NC(=O)Cc1cc(F)cc(F)c1)C(=O)N[C@H](C(=O)OC(C)(C)C)c1ccccc1 [DAPT],"Maturation markers Junctin, SERCA2a, CaV1.2",[1],decrease
same,cTNT expression,[2],decrease
Cn1c(=O)c2c(ncn2C)n(C)c1=O [caffeine],Calcium release,"[3]; 20 mM, 3D culture vs 2D",more rapid release of calcium
same,Time to maximum calcium concentration,"[3]; 20 mM, 3D culture vs 2D",quicker
same,Upslope (velocity of calcium release),"[3]; 20 mM, 3D culture vs 2D",steeper
CC(C)NCC(O)c1ccc(O)c(O)c1 (centres unmarked) [isoproterenol],Beat rate,"[3]; 1 μM, 10 min incubation",increased their beat rate
same,Beat rate,[3]; cells cultured in 3D compared to cells in 2D culture,increased beat rate
CC(C)NCC(O)COc1cccc2ccccc12 (centres unmarked) [propranolol],Beat rate,[3]; 10 μM added after 1 μM isoproterenol,decreased to baseline levels
